Data as given in paper PMC11818404, “Experimental and Computational Investigation of the Target and Mechanisms of Gelsemium Alkaloids in the Central Nervous System” (International Journal of Molecular Sciences, 2025).
Read-outs that look alike come from different tables or passages of the source.

Assays:
α1β2γ2 GABAAR = target: T1, α1β2γ2 GABAAR (Homo sapiens, UniProt P14867+P18507+P47870); test: Whole-cell patch-clamp of GABA-evoked currents, transfected HEK293 cells; assay type: cell-based; conditions: for Hillslope: GABAAR concentration-response curve; for percentage change in peak current modulation / IC50: GABAAR; for percentage change in peak current modulation: alkaloid 300 µM co-applied with subsaturated GABA, mean ± SE; for IC50: reduction of GABA-evoked current, n = 4
T1 construct: expressed in transfected cells; host or cells: HEK293

α1 GlyR = target: T2, α1 GlyR (Homo sapiens, UniProt P23415); test: Whole-cell patch-clamp of glycine-evoked currents, transfected HEK293 cells; assay type: cell-based; conditions: for activity on GlyR currents (in words): GlyRs (α1 and α1β), single concentration 300 µM; for percentage change in peak current modulation: alkaloid 300 µM co-applied with subsaturated glycine, mean ± SE
T2 construct: expressed in transfected cells; host or cells: HEK293
T2 sequence (P23415 29-449 isoform P23415-2 limits assumed): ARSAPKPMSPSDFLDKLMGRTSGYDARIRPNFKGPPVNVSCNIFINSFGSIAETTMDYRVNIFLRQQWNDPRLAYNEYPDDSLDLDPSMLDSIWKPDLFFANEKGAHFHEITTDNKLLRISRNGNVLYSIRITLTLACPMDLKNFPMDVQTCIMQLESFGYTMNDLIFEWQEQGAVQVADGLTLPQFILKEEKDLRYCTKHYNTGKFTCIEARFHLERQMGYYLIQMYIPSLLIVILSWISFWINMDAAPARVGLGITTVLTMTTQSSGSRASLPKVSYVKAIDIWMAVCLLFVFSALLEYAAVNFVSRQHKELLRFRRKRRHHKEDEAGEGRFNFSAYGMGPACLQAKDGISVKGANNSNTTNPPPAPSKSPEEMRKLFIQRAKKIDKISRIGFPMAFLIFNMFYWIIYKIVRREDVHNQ
Description: (§1) HEK293 cells were obtained from Beijing Aisiyipu Biotechnology Co. Cells were cultured in Dulbecco’s Modified Eagle Medium containing 10% fetal bovine serum, 800 µg/mL G418, 200 µg/mL hygromycin B, and 100 µg/mL Zeocin at 37 °C and 5% CO2. Cells were transfected with plasmids encoding the following proteins: (i). nAChRα7 (CHRNA7, NM_000746; RIC3, NM_024557), (ii) GABA-α1 (NM_000806), GABA-β2 (NM_021911), and GABA-γ2 (NM_198904), and (iii) GlyR α1 (NM_000171) and GlyR β (NM_000824). To obtain β-containing GlyRs, an α/β transfection ratio of 1:5 was used; for γ2-containing GABAARs, the ratio was 1:2:5 of α/β/γ2.
(§2) For whole-cell recording, the […] contained 140 mM NaCl, 3.5 mM KCl, 1 mM MgCl2•6H2O, 2 mM CaCl2•2H2O, 10 mM D-glucose, 10 mM HEPES, and 1.25 mM NaH2PO4•2H2O, (pH 7.4). The […] solution contained 50 mM CsCl, 10 mM NaCl, 10 mM HEPES, 60 mM CsF, and 20 mM EGTA (pH 7.2). Briefly, during the diaphragm clamp operation, the glass capillary was drawn into a recording electrode using a microelectrode puller. Subsequently, the electrode filled with intracellular fluid was loaded into the microelectrode holder, and the cell-lined coverslip was placed in the recording bath under an inverted microscope, followed by manipulation of the microelectrode manipulator to immerse the electrode into the extracellular fluid under an inverted microscope. Electrode resistance (Rpip) was recorded, and the electrode was gently positioned on the cell surface with negative pressure applied to establish a GΩ-level high-resistance seal. Fast capacitance compensation was performed, followed by additional suction to breach the cell membrane and form a whole-cell recording. Finally, slow capacitance compensation was performed, and experimental parameters such as series resistance (Rs) were recorded. Leakage compensation was not provided. Whole-cell patch-clamp recordings were performed at −70 mV using HEKA EPC-10 (HEKA Elektronik GmbH, Reutlingen, Germany) amplifiers. Data acquisition was performed using the HEKA PatchMaster. We aimed to study the allosteric regulation of GABAAR and GlyR by Gelsemium alkaloids, so the effects of the alkaloids on Gly- or GABA-evoked currents were determined via co-application of subsaturated agonist concentrations (EC10 and EC50) together with the alkaloid. The EC50 for α1 GlyR was 30 µM, whereas the EC10 for α1β2γ2 GABAAR was 3.0 µM. The choice of specific agonist concentration was determined based on previous studies. We first examined the effects of each Gelsemium alkaloid at a concentration of 300 µM on channel currents. The peak receptor currents for subsaturated concentrations of specific agonists and the peak receptor currents after administration of each drug were recorded, and the modulation percentage was calculated for each drug. The modulation percentage was calculated using Equation (1):Percentage change = ((Ialkaloid − Iagonist)/Iagonist),(1) where Ialkaloid denotes the current in the presence of a given concentration of alkaloid, and Iagonist denotes the amplitude of the control glycine or GABA current elicited by the activation of a given receptor. To construct the concentration-response curve, six graded concentrations (1 µM, 3 µM, 10 µM, 30 µM, 100 µM, and 300 µM) of each Gelsemium alkaloid were tested. The concentration-response curve parameters for alkaloid inhibition were obtained from the curve of the normalized concentration-response data points fitted using Equation (2):Iagonist = Imax (agonist)nH/((agonist)nH + (EC50) nH), (2) where Iagonist is the current in the presence of a given subsaturated concentration of GABA, and EC50 is the concentration required for the half-maximal response. Each drug was repeated four times per concentration, and the data were expressed as the mean ± SE All electrophysiological tests performed at 20 °C.

α1β GlyR = target: T3, α1β GlyR (Homo sapiens, UniProt P23415); test: as above; assay type: cell-based; conditions: α1βGlyR; alkaloid 300 µM co-applied with subsaturated glycine; mean ± SE
T3 construct: expressed in transfected cells; host or cells: HEK293
Description: as §1, §2

nAChRα7 = target: T4, nAChRα7 (Homo sapiens, UniProt P36544); test: Whole-cell patch-clamp of acetylcholine ion channel currents, transfected HEK293 cells; assay type: cell-based; conditions: nACHR; alkaloid 300 µM; mean ± SE
T4 construct: expressed in transfected cells; host or cells: HEK293
Description: as §1
For whole-cell recording, the […] contained 140 mM NaCl, 3.5 mM KCl, 1 mM MgCl2•6H2O, 2 mM CaCl2•2H2O, 10 mM D-glucose, 10 mM HEPES, and 1.25 mM NaH2PO4•2H2O, (pH 7.4). […] Electrode resistance (Rpip) was recorded, and the electrode was gently positioned on the cell surface with negative pressure applied to establish a GΩ-level high-resistance seal. […] Finally, slow capacitance compensation was performed, and experimental parameters such as series resistance (Rs) were recorded. […] We aimed to study the allosteric regulation of GABAAR and GlyR by Gelsemium alkaloids, so the effects of the alkaloids on Gly- or GABA-evoked currents were determined via co-application of subsaturated agonist concentrations (EC10 and EC50) together with the alkaloid. […]

GABAAR = system: GABAAR; design: method as in PMID 32541553, PMID 32391682; conditions: read-out: EC50 for positive allosteric modulation of GABAAR; cited from earlier work
GlyR = conditions: read-out: IC50 for GlyR; cited from earlier work
[1] = α1GlyR, reduction of glycine-evoked current, n = 4, read-out: IC50

T1 sequence (P18507 40-475): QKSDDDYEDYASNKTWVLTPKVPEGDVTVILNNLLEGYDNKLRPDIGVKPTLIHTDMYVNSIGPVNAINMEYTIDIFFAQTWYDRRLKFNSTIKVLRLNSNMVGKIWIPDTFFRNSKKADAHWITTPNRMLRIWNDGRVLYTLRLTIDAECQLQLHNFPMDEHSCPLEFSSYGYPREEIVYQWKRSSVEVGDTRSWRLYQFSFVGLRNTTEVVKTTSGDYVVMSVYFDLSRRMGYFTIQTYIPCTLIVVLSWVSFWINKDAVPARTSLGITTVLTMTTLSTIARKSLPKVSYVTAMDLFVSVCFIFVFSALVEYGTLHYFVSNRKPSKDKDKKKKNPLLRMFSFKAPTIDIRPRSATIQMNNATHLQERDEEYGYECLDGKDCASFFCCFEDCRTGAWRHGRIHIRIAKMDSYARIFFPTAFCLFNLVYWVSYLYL
T1 sequence (P14867 28-456): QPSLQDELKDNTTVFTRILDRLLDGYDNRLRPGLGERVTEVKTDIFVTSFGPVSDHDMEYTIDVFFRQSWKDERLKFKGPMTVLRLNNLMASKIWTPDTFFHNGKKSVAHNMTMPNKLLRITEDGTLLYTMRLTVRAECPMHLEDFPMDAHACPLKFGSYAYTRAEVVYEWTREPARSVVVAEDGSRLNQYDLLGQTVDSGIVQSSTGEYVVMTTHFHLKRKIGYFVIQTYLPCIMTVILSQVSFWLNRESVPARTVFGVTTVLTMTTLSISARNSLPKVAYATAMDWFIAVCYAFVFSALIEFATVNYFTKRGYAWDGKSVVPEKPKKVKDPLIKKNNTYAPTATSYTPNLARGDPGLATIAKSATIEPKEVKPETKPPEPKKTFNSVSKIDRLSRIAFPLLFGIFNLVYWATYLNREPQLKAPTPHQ
T1 sequence (P47870 26-512): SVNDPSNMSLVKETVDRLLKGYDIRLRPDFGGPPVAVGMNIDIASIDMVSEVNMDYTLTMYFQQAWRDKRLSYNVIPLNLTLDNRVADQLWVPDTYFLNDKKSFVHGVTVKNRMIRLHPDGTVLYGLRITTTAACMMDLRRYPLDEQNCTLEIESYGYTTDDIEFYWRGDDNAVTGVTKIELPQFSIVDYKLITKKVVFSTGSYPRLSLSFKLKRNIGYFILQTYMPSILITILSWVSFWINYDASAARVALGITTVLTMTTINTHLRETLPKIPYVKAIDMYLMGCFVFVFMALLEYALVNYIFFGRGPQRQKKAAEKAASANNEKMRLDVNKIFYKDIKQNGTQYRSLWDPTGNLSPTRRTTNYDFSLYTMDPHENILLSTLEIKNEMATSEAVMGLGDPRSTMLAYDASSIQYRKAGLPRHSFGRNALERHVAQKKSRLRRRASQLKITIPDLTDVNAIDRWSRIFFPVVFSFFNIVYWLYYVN
T3 sequence (P48167 23-497 partner, one chain of several): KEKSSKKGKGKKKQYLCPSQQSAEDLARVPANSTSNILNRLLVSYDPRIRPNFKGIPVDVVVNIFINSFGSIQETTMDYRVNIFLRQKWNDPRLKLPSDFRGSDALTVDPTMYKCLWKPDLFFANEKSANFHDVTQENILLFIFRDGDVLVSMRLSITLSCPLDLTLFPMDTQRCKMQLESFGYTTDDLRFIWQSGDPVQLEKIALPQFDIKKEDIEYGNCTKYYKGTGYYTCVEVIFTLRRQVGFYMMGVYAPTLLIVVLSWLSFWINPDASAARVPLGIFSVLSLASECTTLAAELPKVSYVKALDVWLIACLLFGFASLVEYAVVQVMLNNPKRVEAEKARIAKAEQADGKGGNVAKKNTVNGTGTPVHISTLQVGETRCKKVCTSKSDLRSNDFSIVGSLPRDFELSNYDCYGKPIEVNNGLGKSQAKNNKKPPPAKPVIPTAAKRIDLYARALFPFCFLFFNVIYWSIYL
T4 sequence (P36544 23-502): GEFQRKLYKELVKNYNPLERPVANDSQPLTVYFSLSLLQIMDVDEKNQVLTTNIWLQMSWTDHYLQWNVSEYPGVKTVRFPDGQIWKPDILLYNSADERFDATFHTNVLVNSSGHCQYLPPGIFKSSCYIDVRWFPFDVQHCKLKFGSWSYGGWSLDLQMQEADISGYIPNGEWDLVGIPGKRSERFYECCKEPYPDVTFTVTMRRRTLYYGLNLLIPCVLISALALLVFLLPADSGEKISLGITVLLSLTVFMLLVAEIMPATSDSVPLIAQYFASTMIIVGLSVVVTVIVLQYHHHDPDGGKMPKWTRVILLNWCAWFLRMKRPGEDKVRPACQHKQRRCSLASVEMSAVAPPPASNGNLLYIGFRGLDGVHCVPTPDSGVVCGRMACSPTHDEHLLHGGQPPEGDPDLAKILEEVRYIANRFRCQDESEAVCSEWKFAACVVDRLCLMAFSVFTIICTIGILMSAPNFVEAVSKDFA

Row | Compound | Hillslope (α1β2γ2 GABAAR) | percentage change in peak current modulation (α1β2γ2 GABAAR) | IC50 (α1β2γ2 GABAAR) [µM] | IC50 (α1 GlyR) [µM] | activity on GlyR currents (in words) (α1 GlyR) | percentage change in peak current modulation (α1 GlyR; α1GlyR) | percentage change in peak current modulation (α1β GlyR) | EC50 (α1β2γ2 GABAAR) [µM] | IC50 (α1 GlyR; [1]) [µM] | percentage change in peak current modulation (nAChRα7) | EC50 (GABAAR) [µM] | IC50 (GlyR) [µM]
1 | C=C[C@]12CN(C)[C@@H]3[C@H]4CO[C@H](C[C@H]41)[C@]1(C(=O)Nc4ccccc41)[C@@H]32 [Gelsemine, gelsemine] | −0.9158 | −58.78% ± 1.74% | 171 | 10.4 | strong activity | −70.39% ± 4.85% | −92.18% ± 2.87% | – | – | – | – | –
2 | CCC1=N[C@H]2C[C@@]3(C(=O)N(OC)c4ccccc43)[C@H]3C[C@@H]1[C@@H]2CO3 [Gelsenicine, gelsenicine] | 0.8002 | 58.63% ± 5.56% | – | – | minimal effect | −13.64% ± 4.34% | −10.44% ± 5.99% | 192 | – | – | – | –
3 | C=C[C@]12CN(C)[C@@H]3[C@H]4CO[C@H](C[C@H]41)[C@]1(C(=O)N(OC)c4ccccc41)[C@@H]32 [Gelsevirine, gelsevirine] | −1.110 | −55.82% ± 0.35% | 252 | – | strong activity | −98.89% ± 0.68% | −99.06% ± 0.62% | – | 82.9 | 0.75% ± 0.65% | – | –
4 | C=C[C@@]12CN(C)[C@H]3C[C@]14C(=Nc1ccccc14)[C@H]1C[C@@H]2[C@@H]3CO1 [Koumine, koumine] | – | – | – | – | strong activity | −95.53% ± 0.70% | −87.29% ± 0.52% | – | 9.59 | 1.42% ± 0.00% | – | –
5 | CN1C(=O)CN=C(c2ccccc2)c2cc(Cl)ccc21 [diazepam] | – | – | – | – | – | – | – | – | – | – | ~0.005 | –
6 | O=C1C[C@@H]2OCC=C3CN4CC[C@]56c7ccccc7N1[C@H]5[C@H]2[C@H]3C[C@H]46 [strychnine] | – | – | – | – | – | – | – | – | – | – | – | ~0.18
7 | humantenirine | – | 41.66% ± 0.53% | – | – | minimal effect | −11.75% ± 4.34% | −16.82% ± 4.41% | – | – | – | – | –
